Experimental data taken from patent publication US11564959B2 (SHISEIDO COMPANY, LTD., priority 2016, dated 2023).
Counter-ions that a name gives are not always drawn.

Key:
MCSP-positive cells [1] = assay: Tissue culture of human skin with MMP and heparanase inhibiting agents, MCSP staining; format: cell-based; conditions: CGS27023A 10 μM and BIPBIPU 10 μM added together, 4 days of culturing, abdominal skin
Description: DAPI was also used for nuclear staining. […] DAPI was also used for nuclear staining.

PDGF-BB = assay: Membrane array of cytokines in epidermis protein extract of three-dimensional skin model; format: cell-based; conditions: CGS27023A 10^−5 M and BIPBIPU 10^−5 M added together, 2nd, 4th and 7th day, data not shown
Description: The epidermis was collected from the skin model on the 2nd day, 4th day and 7th day of culturing, and RIPA buffer by Nacalai was used to prepare a protein extract. Using a membrane array kit (ab134002) by Abcam Co., the amounts of different cytokines in the protein extract were detected using a LAS-1000UVmini by Fujifilm and digitized with the included software, and a graph was drawn (data not shown). The cytokines whose amounts increased compared to the control were selected as candidate cytokines that promote type V collagen expression. Three cytokines including PDGF-BB were selected as candidate cytokines.

laminin 511 [2] = conditions: CGS27023A 10 μM and BIPBIPU 10 μM added together, 4 days of culturing, abdominal skin
Method: The taken samples were cultured for 4 days in culture medium containing the MMP9 inhibiting agent CGS270234 (10 μM) and the heparanase inhibiting agent BIPBIU (10 μM).

MCSP-positive cells [3] = assay: Ex vivo human skin organ culturing with HEI, MCSP staining; format: cell-based; conditions: 0.01% HEI, 5 days, abdominal skin
human skin = assay: Ex vivo human skin organ culturing with HEI, TEWL and stratum corneum moisture; format: cell-based; conditions: 0.01% HEI, 5 days
Method: (§1) The taken samples were cultured for 5 days in culture medium containing 0.01% HEI. […] The excess moisture adhering to the cultured skin sample was wiped off with a Kimtowel, and after allowing it to stand for 5 minutes, a Vapometer was used for TEWL measurement, and a Corneometer was used to measure the stratum corneum moisture content.

heparanase = molecular target: T1, heparanase (Homo sapiens, UniProt Q9Y251); assay: Heparanase assay on heparan sulfate immobilization plate with A431 cell lysate; format: biochemical; conditions: 0.0005%, 0.005% or 0.05% HEI, 3 hours at 37° C., FIG. 8
T1 construct: endogenous in cells; host or cells: A431 cell lysate
T1 sequence (Q9Y251 158-543 limits assumed): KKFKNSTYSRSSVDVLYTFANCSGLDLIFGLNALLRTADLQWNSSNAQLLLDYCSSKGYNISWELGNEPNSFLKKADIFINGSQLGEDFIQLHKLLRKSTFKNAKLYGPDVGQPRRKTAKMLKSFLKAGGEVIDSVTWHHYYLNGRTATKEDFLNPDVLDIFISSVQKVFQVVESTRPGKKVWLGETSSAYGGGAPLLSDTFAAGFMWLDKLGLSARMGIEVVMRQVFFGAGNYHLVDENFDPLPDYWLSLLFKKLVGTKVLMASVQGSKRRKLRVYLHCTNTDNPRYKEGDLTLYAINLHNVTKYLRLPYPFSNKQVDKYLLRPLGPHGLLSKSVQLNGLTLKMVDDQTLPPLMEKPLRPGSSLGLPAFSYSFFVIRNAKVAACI
T1 sequence (Q9Y251 36-109 limits assumed): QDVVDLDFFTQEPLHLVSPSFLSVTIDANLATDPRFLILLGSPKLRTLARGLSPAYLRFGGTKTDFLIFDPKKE
Method: A heparanase assay was carried out using a heparan sulfate immobilization plate, as described in Behzad F, et al., Analytical Biochemistry, 320, pp. 207-213, 2003. Specifically, heparan sulfate (Seikagaku, Tokyo, Japan) was reacted with photobiotin to prepare biotinylated heparan sulfate. The biotinylated heparan sulfate was fixed onto a carbohydrate-binding surface plate (Coastar, Tokyo, Japan). A431 cell lysate (50 μg/ml) and 0% HEI, 0.0005% HEI, 0.005% HEI or 0.05% HEI were added onto the biotinylated heparan sulfate immobilized plate, incubated for 3 hours at 37° C., and then rinsed with PBS-T. Next, peroxidase-avidin (Vector Laboratories, Inc. CA, USA) was incubated at 37° C. for 1 hour. A 3,3′,5,5′-tetramethylbenzidine (TMB) solution (Bio-Rad, Tokyo, Japan) was added, and the plate was further incubated at room temperature for 30 minutes. The absorbance at 450 nm was measured to determine the heparanase inhibiting effect.

laminin 511 [4] = assay: Ex vivo human skin organ culturing with HEI, laminin 511 staining; conditions: 0.01% HEI, 5 days, abdominal skin
filaggrin = assay: Ex vivo human skin organ culturing with HEI, filaggrin staining; format: cell-based; conditions: 0.01% HEI, 5 days
Method: as §1
DAPI was also used for nuclear staining.

recombinant human MMP-9 = molecular target: T2, recombinant human MMP-9 (Homo sapiens, UniProt P14780); assay: MMP-9 colorimetric drug discovery kit assay; format: biochemical; conditions: 0.0001%, 0.001% and 0.01% HEI, FIG. 9
T2 construct: purchased Enzo Life Sciences Inc
Method: An MMP9 assay was carried out using a Matrix Metalloproteinase-9 (MMP-9) colorimetric drug discovery kit (Enzo Life Sciences Inc.). Specifically, HEI was added to a recombinant human MMP-9 enzyme solution to 0.0001%, 0.001% and 0.01% concentration. After mixing with chromogenic MMP-9 substrate, the absorbance at 412 nm was measured every other minute. The MMP-9 inhibition rate (%) for HEI was calculated from the slope of the absorbance (OD/min).

[5] = In vivo human application test of HEI solution on the face, TEWL and stratum corneum moisture; conditions: 1.5% HEI solution on one side of the face, twice a day for 4 weeks, water on other side
Method: Next, 20 males from 20 to 50 years of age were asked to apply a 1.5% HEI solution on one side of the face and water on the other side of the face, twice a day for 4 weeks. Before application, 2 weeks after application and 4 weeks after application, the TEWL was measured using a Vapometer, and a Corneometer was used to measure the stratum corneum moisture content.

[6] = tested on: gene COL5A1 for type V collagen; assay: COL5A1 expression in human fibroblasts after addition of recombinant cytokine; format: cell-based; conditions: normal human fibroblasts, 24 hours
Method: The selected recombinant cytokine proteins were purchased from R&D Co. Normal human fibroblasts from skin harvested from 14-month-old children were cultured for 24 hours in 10% FBS-added DMEM, and the medium in the cultured product was exchanged with another medium added to DMEM medium containing 25% serum for a prescribed concentration of each cytokine, after which culturing was continued for 24 hours. After culturing, the cells were collected and the mRNA was extracted with Trizol. The cDNA was rapidly prepared, and the aforementioned primers were used for real-time PCR to evaluate the gene expression levels of the gene COL5A1 for type V collagen (FIG. 15).

T2 sequence (P14780 107-444 limits assumed): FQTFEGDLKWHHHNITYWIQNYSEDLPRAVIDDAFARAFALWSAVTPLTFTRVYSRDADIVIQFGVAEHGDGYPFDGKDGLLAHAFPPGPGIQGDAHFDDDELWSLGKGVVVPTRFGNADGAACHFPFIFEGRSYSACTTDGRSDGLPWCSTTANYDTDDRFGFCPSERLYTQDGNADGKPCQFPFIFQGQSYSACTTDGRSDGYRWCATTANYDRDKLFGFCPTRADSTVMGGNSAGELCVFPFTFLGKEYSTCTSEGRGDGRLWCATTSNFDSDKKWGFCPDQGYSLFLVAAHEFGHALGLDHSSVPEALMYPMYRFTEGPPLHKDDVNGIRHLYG

With `O=C(Nc1ccc(-c2nc3ccccc3[nH]2)cc1)Nc1ccc(-c2nc3ccccc3[nH]2)cc1` [BIPBIPU, 1-[4-(1H-benzoimidazol-2-yl)phenyl]-3-[4-(1H-benzoimidazol-2-yl)phenyl]urea] the “MCSP-positive cells after tissue culture” value (MCSP-positive cells [1]) was “maintenance or augmentation of MCSP” and the “amount of PDGF-BB in epidermis protein extract compared to the control” value (PDGF-BB) was “increased”.

In the case of `COc1ccc(S(=O)(=O)N(Cc2cccnc2)[C@@H](C(=O)NO)C(C)C)cc1` [CGS27023A, N-hydroxy-2(R)-[[(4-methoxy-phenyl)sulfonyl](3-picolyl)amino]-3-methylbutanamide hydrochloride], the “MCSP-positive cells after tissue culture” value (MCSP-positive cells [1]) is reported as “maintenance or augmentation of MCSP”, the “laminin 511 in the basal membrane after tissue culture” value (laminin 511 [2]) is reported as “augmentation of laminin 511” and the “amount of PDGF-BB in epidermis protein extract compared to the control” value (PDGF-BB) is reported as “increased”.

With `O=C1NCCN1CCO` [HEI, 1-(2-Hydroxyethyl)-2-imidazolidinone] the “MCSP-positive cell count on the basal membrane after culturing” value (MCSP-positive cells [3]) was “maintained”, the “stratum corneum moisture content” value (human skin; Corneometer) was “increased” and the TEWL (human skin; Vapometer) was “decreased”. The heparanase inhibiting effect (heparanase) was “inhibit heparanase activity in a dose-dependent manner”, the “amount of laminin 511 after culturing” value (laminin 511 [4]) was “maintained” and the filaggrin protein expression (filaggrin) was “tendency for increase”. The MMP9 inhibition (recombinant human MMP-9) was “inhibit MMP9 activity in a dose-dependent manner”, the TEWL [5] was “decreased” and the “stratum corneum moisture content” value [5] was “increased”.

B1: PDGF-BB: recombinant cytokine protein purchased from R&D Co. (protein, UniProt P01127 82-190, looked up)
Platelet-derived growth …: SLGSLTIAEPAMIAECKTRTEVFEISRRLIDRTNANFLVWPPCVEVQRCSGCCNNRNVQCRPTQVQLRPVQVRKIEIVRKKPIFKKATVTLEDHLACKCETVAAARPVT
With B1 the “type V collagen production (COL5A1 gene expression)” value [6] was “significantly increased”.
